Values of other authors as cited in patent US20180289729A1, “COMBINATION THERAPY FOR TREATMENT OF HUMAN NEURODEGENERATIVE DISEASES” (priority 2017, published 2018).

Legend:
hippocampal neurogenesis = conditions: rat models
[1] = tested on: proliferating neural stem and progenitor cells within the hippocampal dentate gyrus; conditions: both young and "old" mice models

| SMILES | effect on hippocampal neurogenesis (hippocampal neurogenesis) | increase in the number of proliferating neural stem and progenitor cells within the hippocampal dentate gyrus [1] |
| --- | --- | --- |
| CCCCCCC(C)(C)c1cc(O)c2c(c1)OC(C)(C)[C@@H]1CC=C(CO)C[C@@H]21 [[(6aR)-trans-3-(1,1-dimethylheptyl)-6a, 7,10,10a-tetrahydro-1-hydroxy-6,6-dimethyl-6H-dibenzo [b,d]pyran-9-methanol]] | dramatic effect | – |
| Cc1cccc(-c2n[nH]cc2-c2ccc3ncccc3n2)n1 [2-(3-(6-methylpyricin-2-yl)-1H-pyrazol-4-yl)-1,5-naphthyridine] | – | two-fold increase |
